Results on 34 compounds are retold here after patent publication US20050009894A1 (Aventis Pharma S.A., priority 2001, published 2005).

This experiment concerns the target T1, human KDR enzyme (Homo sapiens, UniProt P35968).
T1 construct: The cytoplasmic domain of human KDR enzyme is cloned in the form of a GST fusion; GST; made in house; host or cells: SF21 insect cells (baculovirus, pFastBac)
Briefly: Phosphorylation of the substrate PLCγ by the enzyme KDR in vitro (flashplate technique). Type of experiment: biochemical. To be noted: for IC50: read-out: IC50 (μM) on inhibition of the phosphory-lation of PLCγ by KDR; for pIC50: Table VII, degrees of activity by IC50 range, read-out: Activity. The procedure: The inhibitory effect of the compounds is determined in a test of phosphorylation of a substrate by the enzyme KDR in vitro by the flasplate technique (96-well plate, NEN). The cytoplasmic domain of human KDR enzyme is cloned in the form of a GST fusion into the baculovirus expression vector pFastBac. The protein is expressed in the SF21 cells and purified to about 60% homogeneity.
The kinase activity of KDR is measured in 20 mM MOPS, 10 mM MgCl2, 10 mM MnCl2, 1 mM DTT, 2.5 mM EGTA, 10 mM β-glycerophosphate, pH 7.2 in the presence of 10 mM MgCl2, 100 μM Na3VO4, 1 mM NaF. 10 μl of the compound are added to 70 μl of kinase buffer containing 100 ng of KDR enzyme at 4° C. The reaction is initiated by adding 20 μl of solution containing 2 μg of substrate (fragment SH2-SH3 of PLCγ expressed in the form of a GST fusion protein), 2 μCi γ33P[ATP] and 2 μM cold ATP. After incubating for 1 h at 37° C., the reaction is quenched by adding 1 volume (100 μl) of 200 mM EDTA. The incubation buffer is removed and the wells are washed three times with 300 μl of PBS. The radioactivity is measured in each well using a Top Count NXT instrument (Packard).
Background noise is determined by measuring the radio-activity in wells in quadruplet containing radioactive ATP and the substrate alone.
An activity control is measured in wells in quadruplet containing all the reagents (γ33P-[ATP], KDR and the substrate PLCγ) and in the absence of compound.
The inhibition of the KDR activity with the compound of the invention is expressed as a percentage of inhibition of the control activity determined in the absence of compound.
The compound SU5614 (Calbiochem) (1 μM) is included in each plate as inhibition control.
The IC50 values for the compounds are calculated by plotting the dose-response curves. The IC50 corresponds to the concentration of compound that induces a 50% inhibition of the kinase activity.

pIC50: −log10 of the molar value. Where two headings read alike, the source gives them in different places.

T1 sequence (P35968 786-1356 limits assumed): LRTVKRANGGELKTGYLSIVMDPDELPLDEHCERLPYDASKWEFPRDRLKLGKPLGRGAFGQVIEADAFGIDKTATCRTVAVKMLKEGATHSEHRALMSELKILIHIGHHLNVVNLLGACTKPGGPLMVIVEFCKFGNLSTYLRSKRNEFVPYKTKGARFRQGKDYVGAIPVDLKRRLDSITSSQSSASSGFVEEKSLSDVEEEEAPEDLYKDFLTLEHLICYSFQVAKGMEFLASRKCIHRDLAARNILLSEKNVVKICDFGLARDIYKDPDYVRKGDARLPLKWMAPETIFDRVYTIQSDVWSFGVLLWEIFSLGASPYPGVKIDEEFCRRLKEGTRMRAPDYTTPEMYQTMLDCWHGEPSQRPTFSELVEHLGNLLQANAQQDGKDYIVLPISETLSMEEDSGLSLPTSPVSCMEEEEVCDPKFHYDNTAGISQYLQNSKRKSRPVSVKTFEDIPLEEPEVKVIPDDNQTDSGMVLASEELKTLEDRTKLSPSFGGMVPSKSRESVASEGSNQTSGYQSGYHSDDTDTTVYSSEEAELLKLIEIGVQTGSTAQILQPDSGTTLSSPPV

`Cc1cc(-c2nc3cc(C)c(C)cc3[nH]2)[nH]n1` [Example 20, 5,6-Dimethyl-2-(5-methyl-2H-pyrazol-3-yl)-1H-benzimidazole]: the IC50 came to 3.4 µM. Regarding `O=C(NCc1cc2ccccc2s1)c1ccc2[nH]c(-c3n[nH]c4ccccc34)nc2c1` [Example 54, 2-(1H-Indazol-3-yl)-1H-benzoimidazole-5-carboxylic acid (benzo[b]thiophen-2-ylmethyl)-amide], the pIC50 was 5.52 to 6.52. Still for that read-out and setting: the result for `O=C(Oc1cc(-c2nc3ccccc3[nH]2)[nH]n1)c1ccc(-c2ccccc2)cc1` [Example 225, Biphenyl-4-carboxylic acid 5-(1H-benzoimidazol-2-yl)-1H-pyrazol-3-yl ester] reads below 5.52; that for `O=C(NCc1ccc(F)cc1F)c1ccc2[nH]c(-c3n[nH]c4ccccc34)nc2c1` [Example 155, 2-(1H-Indazol-3-yl)-1H-benzoimidazole-5-carboxylic acid 2,4-difluoro-benzylamide], 5.52 to 6.52; that for `O=C(NCc1ccc2c(c1)CCO2)c1ccc2[nH]c(-c3n[nH]c4ccccc34)nc2c1` [Example 58, 2-(1H-Indazol-3-yl)-1H-benzoimidazole-5-carboxylic acid (2,3-dihydro-benzofuran-5-ylmethyl)-amide], above 6.52.

With `CNC(=O)c1ccc2[nH]c(-c3n[nH]c4ccccc34)nc2c1` [Example 2, 2-(1H-Indazol-3-yl)-1H-benzimidazole-5-carboxylic acid N-methylamide], the IC50 turned out to be 0.45 µM. `O=C(NCc1ccccc1C(F)(F)F)c1ccc2[nH]c(-c3n[nH]c4ccccc34)nc2c1` [Example 47, 2-(1H-Indazol-3-yl)-1H-benzoimidazole-5-carboxylic acid 2-trifluoromethyl-benzylamide]: the pIC50 is 5.52 to 6.52. On the same count and under the same terms, the result for `O=C(NCc1cccc(OC(F)(F)F)c1)c1cccc2nc(-c3n[nH]c4ccccc34)[nH]c12` [Example 85, 2-(1H-Indazol-3-yl)-3H-benzoimidazole-4-carboxylic acid 3-trifluoromethoxy-benzylamide] reads below 5.52.

As for `Cc1ccc(-c2ccc3nc(-c4[nH]nc5ccccc45)[nH]c3c2)cc1C` [Example 116, 3-[6-(3,4-Dimethyl-phenyl)-1H-benzoimidazol-2-yl]-2H-indazole], the pIC50 is below 5.52. Still for that read-out and setting: the result for `O=C(NCCc1ccccc1)c1cccc2nc(-c3n[nH]c4ccccc34)[nH]c12` [Example 96, 2-(1H-Indazol-3-yl)-3H-benzoimidazole-4-carboxylic acid phenethyl-amide] reads below 5.52; that for `Fc1ccc(/C=C/c2ccc3nc(-c4[nH]nc5ccccc45)[nH]c3c2)cc1` [Example 138, 3-{6-[2-(4-Fluoro-phenyl)-vinyl]-1H-benzoimidazol-2-yl}-2H-indazole], below 5.52. On to `CC(C)NC(=O)c1ccc2[nH]c(-c3n[nH]c4ccccc34)nc2c1` [Example 4, 2-(1H-Indazol-3-yl)-1H-benzimidazole-5-carboxylic acid N-isopropylamide], for which the IC50 is 0.45 µM.

In the case of `c1ccc(-c2ccc3nc(-c4[nH]nc5ccccc45)[nH]c3c2)cc1` [Example 97, 3-(6-Phenyl-1H-benzimidazol-2-yl)-2H-indazole], the pIC50 was below 5.52.

Take `O=C(NCc1ccc(Cl)cc1F)c1ccc2[nH]c(-c3n[nH]c4ccccc34)nc2c1` [Example 158, 2-(1H-Indazol-3-yl)-1H-benzoimidazole-5-carboxylic acid 4-chloro-2-fluoro-benzylamide]: the pIC50 is 5.52 to 6.52. Same read-out and setting: the same measure for `O=C(NCc1ccc(-c2cc(Cl)cc(Cl)c2)cc1)c1ccc2[nH]c(-c3n[nH]c4ccccc34)nc2c1` [Example 163, 2-(1H-Indazol-3-yl)-1H-benzoimidazole-5-carboxylic acid (3′,5′-dichloro-biphenyl-4-ylmethyl)-amide]: below 5.52.

Take `CC(C)(C)C(=O)Oc1cc(-c2nc3ccccc3[nH]2)[nH]n1` [Example 215, 2,2-Dimethyl-propionic acid 5-(1H-benzoimidazole-2-yl)-1H-pyrazol-3-yl ester]: the pIC50 is below 5.52. The same measure, in the same setting: the result for `Fc1cc(-c2ccc3nc(-c4[nH]nc5ccccc45)[nH]c3c2)ccc1-c1ccccc1` [Example 131, 3-[6-(2-Fluoro-biphenyl-4-yl)-1H-benzoimidazol-2-yl]-2H-indazole] reads below 5.52; that for `NS(=O)(=O)c1ccc(CNC(=O)c2cccc3nc(-c4n[nH]c5ccccc45)[nH]c23)cc1` [Example 73, 2-(1H-Indazol-3-yl)-3H-benzoimidazole-4-carboxylic acid 4-sulfamoyl-benzylamide], 5.52 to 6.52; that for `COc1ccc(CNC(=O)c2ccc3[nH]c(-c4n[nH]c5ccccc45)nc3c2)cn1` [Example 180, 2-(1H-Indazol-3-yl)-1H-benzoimidazole-5-carboxylic acid (6-methoxy-pyridin-3-ylmethyl)-amide], above 6.52. In the case of `CN(Cc1ccccc1)C(=O)c1ccc2[nH]c(-c3n[nH]c4ccccc34)nc2c1` [Example 13, 2-(1H-Indazol-3-yl)-1H-benzimidazole-5-carboxylic acid N-benzyl-N-methylamide], the IC50 came out at 0.61 µM.

In the case of `CN(C)c1ccc(CNC(=O)c2ccc3[nH]c(-c4n[nH]c5ccccc45)nc3c2)cc1` [Example 35, 2-(1H-Indazol-3-yl)-1H-benzoimidazole-5-carboxylic acid 4-dimethylamino-benzylamide], the pIC50 is 5.52 to 6.52. `O=C(NCc1ccc([N+](=O)[O-])cc1)c1ccc2[nH]c(-c3n[nH]c4ccccc34)nc2c1` [Example 37, 2-(1H-Indazol-3-yl)-1H-benzoimidazole-5-carboxylic acid 4-nitro-benzylamide]: the pIC50 is above 6.52. On the same count and under the same terms, the same measure for `O=C(NCc1cccnc1)c1cccc2nc(-c3n[nH]c4ccccc34)[nH]c12` [Example 80, 2-(1H-Indazol-3-yl)-3H-benzoimidazole-4-carboxylic acid (pyridin-3-ylmethyl)-amide]: 5.52 to 6.52. On the same count and under the same terms, the same measure for `O=C(NCc1ccc(Cl)cc1)c1ccc2[nH]c(-c3n[nH]c4ccccc34)nc2c1` [Example 168, 2-(1H-Indazol-3-yl)-1H-benzoimidazole-5-carboxylic acid 4-chloro-benzylamide]: above 6.52. Same read-out and setting: the same measure for `O=C(NCc1ccc(Br)cc1F)c1ccc2[nH]c(-c3n[nH]c4ccccc34)nc2c1` [Example 159, 2-(1H-Indazol-3-yl)-1H-benzoimidazole-5-carboxylic acid 4-bromo-2-fluoro-benzylamide]: 5.52 to 6.52. Regarding `O=S(=O)(Oc1cc(-c2nc3ccccc3[nH]2)[nH]n1)c1cccc(Cl)c1Cl` [Example 194, 2,3-Dichloro-benzenesulfonic acid 5-(1H-benzoimidazol-2-yl)-1H-pyrazol-3-yl ester], the pIC50 is below 5.52. Still for that read-out and setting: the same measure for `COc1ccc(-c2ccc3nc(-c4[nH]nc5ccccc45)[nH]c3c2)cc1` [Example 102, 3-[6-(4-Methoxy-phenyl)-1H-benzoimidazol-2-yl]-2H-indazole]: 5.52 to 6.52.

Regarding `CCCC/C=C/c1ccc2nc(-c3[nH]nc4ccccc34)[nH]c2c1` [Example 119, 3-(6-Hex-1-enyl-1H-benzoimidazol-2-yl)-2H-indazole], the pIC50 is 5.52 to 6.52. Still for that read-out and setting: the result for `O=S(=O)(Cc1ccccc1COc1cc(-c2nc3ccccc3[nH]2)[nH]n1)c1ccccc1` [Example 191, 2-[5-(2-Benzenesulfonylmethylbenzyloxy)-2H-pyrazol-3-yl]-1H-benzoimidazole] reads 5.52 to 6.52. On the same count and under the same terms, the result for `Cc1ccsc1CNC(=O)c1ccc2[nH]c(-c3n[nH]c4ccccc34)nc2c1` [Example 46, 2-(1H-Indazol-3-yl)-1H-benzoimidazole-5-carboxylic acid (3-methyl-thiophen-2-ylmethyl)-amide] reads 5.52 to 6.52; that for `Cc1ccccc1CNC(=O)c1ccc2[nH]c(-c3n[nH]c4ccccc34)nc2c1` [Example 45, 2-(1H-Indazol-3-yl)-1H-benzoimidazole-5-carboxylic acid 2-methyl-benzylamide], above 6.52; that for `O=C(NCc1csc2ccccc12)c1ccc2[nH]c(-c3n[nH]c4ccccc34)nc2c1` [Example 63, 2-(1H-Indazol-3-yl)-1H-benzoimidazole-5-carboxylic acid (benzo[b]thiophen-3-ylmethyl)-amide], above 6.52. The same measure, in the same setting: the same measure for `Clc1ccc(-c2ccc3nc(-c4[nH]nc5ccccc45)[nH]c3c2)cc1Cl` [Example 123, 3-[6-(3,4-Dichloro-phenyl)-1H-benzoimidazol-2-yl]-2H-indazole]: below 5.52; for `Cc1ccc(C(=O)COc2cc(-c3nc4ccccc4[nH]3)[nH]n2)cc1` [Example 198, 2-[5-(1H-Benzoimidazol-2-yl)-1H-pyrazol-3-yloxy]-1-p-tolyl-ethanone]: below 5.52.
